Results on 10 compounds are retold here after patent EP0197829A1, “5H-pyrido[3',4':4,5]pyrrolo[3,2-c]pyridine derivatives, process for their preparation and their antitunour activity” (SANOFI, priority 1985, dated 1986).

“And” between values parts separate entries of the source, which are not always exact repeats. Equal entries are not always repeated. Where two headings read alike, the source gives them in different places.

The test system of one data set is mélanome B 16. In words: B 16 melanoma test in vivo. Details: species or system souris hybrides BDF1; Jour médian de survie: unit not given here. To be noted: 0,5 mg/kg i.p. J1-J9. The source says:
(§1) L'activité antitumorale a été testée in vivo sur différentes tumeurs selon le protocole général suivant : Toutes les souris mâles ou femelles sont inoculées par voie intrapéritonéale au jour Jo avec une quantité déterminée de cellules tumorales viables, variable selon la tumeur.
(§2) Elles sont ensuite réparties en différents lots. Chaque lot correspondant aux animaux traités par le produit à tester à une dose déterminée est composé de lO souris. Dans ce cas, le produit à tester est dissous dans l'eau distillée et il est administré, pendant n jours (J1-Jn) variables selon le protocole choisi, par voie intrapéritonéale à raison de 0,1 ml par lO g de poids des souris traitées, les doses du produit administré étant précisées dans les tableaux ci-dessous.
(§3) Le lot "Contrôle négatif", correspondant aux animaux qui ne sont pas traités par un produit, comprend 2 √N animaux, N étant égal au nombre total de souris traitées par un produit.
(§4) Enfin, tous lés essais sont conduits parallèlement à l'étude d'un lot appelé "Contrôle positif" de 10 animaux qui est traité par une molécule active, variable selon le protocole choisi, dans les mêmes conditions que les lots traités par le produit à tester, afin de valider l'essai.
(§5) L'activité antitumorale est évaluée en considérant l'augmentation du temps de survie des animaux traités par rapport à celui des animaux du lot "Contrôle négatif" selon la formule : • Jour médian de survie des animaux traités à une T/C = dose donnée de produit x 100 • Jour médian de survie des animaux "Contrôle négatif"
(§6) Un composé est considéré comme étant actif lorsque la valeur du rapport T/C est égale ou supérieure à 125 % selon le protocole retenu. Il est toxique lorsque cette valeur est égale ou inférieure à 85 %. Le produit est également considéré comme toxique lorsque la variation pondérale, exprimée en grammes et calculée par la formule : Poids moyen du lot mesuré au jour 5 - poids moyen du même lot au jour 1, est égale ou inférieure à -4g . a) Test de la leucémie P 388 (GERAN et al., Cancer Chemother, 1972, 2, 07-57).
c) Test du mélanome B 16 (GERAN et al., Cancer Chemother, 1972, 2, 07-57).
Les essais sont effectués avec des souris hybrides BDF1 inoculées avec O,5 ml d'un homogénat de mélanome B 16 réalisé à partir de 1 g de tumeur dans 10 ml de sérum physiologique. Le composé à tester est administré pendant 9 jours (J1-J9). Le contrôle positif du test est le Cis- platine administré dans les mêmes conditions. Le nombre d'animaux survivants est évalué au jour J 60. Un composé est considéré comme étant actif lorsque le rapport T/C est supérieur ou égal à 125 %.

Another data set concerns réticulosarcome M5-M5076. Kind of data set: M5-M5076 reticulosarcoma test in vivo. Also noted: species or system souris hybrides BDF1. To be noted: 160 mg/kg i.p. J1, 5, 9, 13, 17.
Source text: as §1, §2, §3, §4, §5, §6
d) Test du réticulosarcome M5-M5076.
Les essais sont effectués avec des souris hybrides BDF1 inoculées avec 10^6 cellules de la lignée M5-M5076. Le composé à tester est administré 5 fois successivement de façon séquentielle (Jl, 5, 9, 13, 17). Le contrôle positif du test est le cyclophosphamide administré dans les mêmes conditions. Le nombre d'animaux survivants est évalué au jour J 75. Un composé est considéré comme actif lorsque le rapport T/C est supérieur ou égal à 125 %.

A further data set can be described thus: in vivo. Also noted: species or system souris. To be noted: mouse, ip. The protocol:
Ainsi, l'administration à des souris hybrides CDF1 saines, en une injection unique par la voie intrapéritonéale, de doses croissantes des composés à tester (5 mg, 10 mg, 20 mg, 40 mg/kg) a permis de constater que, à ces doses, les produits étaient parfaitement tolérés puisque le taux de survivants était de 100 p. 100.
Dans les mêmes conditions, administrés à des souris BDF1 saines, les taux de survivants étaient de 100 p. 100 jusqu'à 100 mg/kg pour les dérivés 1, 3 et 9 et jusqu'à 200 mg/kg pour les dérivés 2 et 8.

The test system of data set [1] is lignée tumorale leucémie L 1210. In words: In vitro cytotoxicity on L 1210 leukemia cell culture. It counts as cell-based. To be noted: Mus musculus, L1210; concentration inhibiting cell proliferation by 50 p. 100, after 48 h contact; read-out: ID 50 (the source's name). The procedure:
1) In vitro : (PAOLETTI et al., Chem. Biol. Interaction, 1979, 25, 45-58).
L'activité cytotoxique des composés de l'invention a été évaluée par des essais in vitro. Ces essais consistent à ajouter des concentrations croissantes du composé à tester à une culture cellulaire de la lignée tumorale leucémie L 1210 en phase exponentielle de croissance. Les cellules sont incubées à 37°C dans une étuve à C02 et comptées toutes les 24 heures. Le calcul de l'ID 50 (concentration du produit exprimée en micromole 1^-1 qui inhibe la prolifération cellulaire à 50 p. 100) est effectué après 48 heures de contact. Ainsi déterminées, les ID 50 des composés de l'invention sont rassemblées dans le tableau I ci-après : […]

For a further data set, the system named is leucémie P 388. It counts as in vivo, souris hybrides CDF1.
Source text: as §1, §2, §3, §4, §5, §6
Les essais sont effectués avec des souris hybrides CDF1 inoculées par voie intrapéritonéale avec […] leucémiques de la lignée P 388. Le composé à tester est administré pendant 5 jours (Jl-J5). Le contrôle positif du test est le 5-fluorouracile qui est administré dans les mêmes conditions.
[…] Un composé est considéré comme étant actif lorsque le rapport T/C est supérieur à 127 %.

In a further data set the test system is leucémie L 1210. Kind of data set: L 1210 leukemia test in vivo. Also noted: species or system souris hybrides CDF1. To be noted: 20 mg/kg i.p. J1-J5.
Source text: as §1, §2, §3, §4, §5, §6
b) Test de la leucémie L 1210 (GERAN et al., Cancer Chemother, 1972, 2, 07-57).
Les essais sont effectués avec des souris hybrides CDF1 inoculées avec 10^5 cellules leucémiques de la lignée L 1210. Le composé à tester est administré pendant 5 jours (J1-J5). Le contrôle positif du test est le 5-fluorouracile administré dans les mêmes conditions. Le nombre d'animaux survivants est évalué au jour J 60. Un composé est considéré comme étant actif lorsque le rapport T/C est supérieur ou égal à 125 %.

[2] abbreviates: 5 mg/kg i.p. J1-J5, at day J 40.
Setting [3] is: 10 mg/kg i.p. J1-J5, at day J 40.
Where [4] appears, read: 20 mg/kg i.p. J1-J5, at day J 40.
The mark [5] stands for this setting: 40 mg/kg i.p. J1-J5, at day J 40.
Setting [6] is: 80 mg/kg i.p. J1-J5, at day J 40.

On to `[NH2][Pt]([NH2])([Cl])[Cl]` [Cis-platine, reference compound], for which, in the data set with mélanome B 16, the “Jour médian de survie” value was 30 and 31,0 and 40,0; the T/C % was 126% and 133% and 141%. The compound further showed a Survivants in the data set with mélanome B 16 (at day J 60) of 0.
In the case of `O=P1(N(CCCl)CCCl)NCCCO1` (stereo not drawn) [Cyclophosphamide, cyclophosphamide, reference compound], in the data set on réticulosarcome M5-M5076, the “Jour médian de survie” value was > 60 and > 71; the T/C % was >229% and >246%. The Survivants in the data set on réticulosarcome M5-M5076 (at day J 75) is 9 and 6.
`Cc1cnc(NCCNCCO)c2c1[nH]c1ccncc12` [Dérivé N° 2, [[[(hydroxy-2 éthyl-l)amino]-2 éthyl-1]-amino]-1 méthyl-4 5-H pyrido[3',4':4,5]pyrrolo[3,2-c]pyridine] registered a survival in the data set “in vivo” (200 mg/kg) of 100%.
For the compound `Cc1cnc(NCCCN(C)C)c2c1[nH]c1ccncc12` [Dérivé N° 3 bis, [(diméthylamino-3 propyl-1)amino]-1 méthyl-4 5-H pyrido[3',4':4,5]pyrrolo[3,2-c]pyridine], in data set [1], the IC50 amounted to 0.16 µM. Further, the “Jour médian de survie” value was 15,83 in the data set on leucémie P 388 (5 mg/kg i.p. J1-J5); 17,13 with leucémie P 388 (10 mg/kg i.p. J1-J5); 20,33 with leucémie P 388 (20 mg/kg i.p. J1-J5); 20,25 with leucémie P 388 (40 mg/kg i.p. J1-J5); 22 in the data set with leucémie P 388 (50 mg/kg i.p. J1-J5); 19,88 in the data set on leucémie P 388 (80 mg/kg i.p. J1-J5). For the same compound, the T/C % in the data set on leucémie P 388 (5 mg/kg i.p. J1-J5) worked out at 145%; in the data set on leucémie P 388 (10 mg/kg i.p. J1-J5) it was 156%; in the data set with leucémie P 388 (20 mg/kg i.p. J1-J5) it was 186%; with leucémie P 388 (40 mg/kg i.p. J1-J5), 184%; with leucémie P 388 (50 mg/kg i.p. J1-J5), 181%; with leucémie P 388 (80 mg/kg i.p. J1-J5), 181%. The Survivants is reported as 0/10 in the data set on leucémie P 388 (setting [2]); 0/10 in the data set with leucémie P 388 (setting [3]); 0/10 in the data set on leucémie P 388 (setting [4]); 0/10 in the data set on leucémie P 388 (setting [5]); 1/10 à J 42 in the data set with leucémie P 388 (50 mg/kg i.p. J1-J5, à J 42); 0/10 in the data set on leucémie P 388 (setting [6]).
Regarding `CCN(CC)CCCNc1ncc(C)c2c1c1cnccc1n2CC` [Dérivé N° 5, [(diéthylamino-3 propyl-1)amino]-1 méthyl-4 éthyl-5 5-H pyrido[3',4':4,5]pyrrolo[3,2-c]pyridine], the IC50 in data set [1] was determined as 1.4 µM.
Regarding `Cc1cnc(NCCCN(C)C)c2c3cnccc3n(C)c12` [Dérivé N° 9, diméthyl-4,5 [(diméthylamino-3 propyl-1)-amino]-1 5-H pyrido[3',4':4,5]pyrrolo[3,2-c]pyridine], the survival in the data set “in vivo” (100 mg/kg) was determined as 100%. Also, the IC50 in data set [1] turned out to be 0.3 µM. Also, the “Jour médian de survie” value in the data set with leucémie P 388 (5 mg/kg i.p. J1-J5) is listed as 15,75; with leucémie P 388 (10 mg/kg i.p. J1-J5) it was 17,38; in the data set with leucémie P 388 (20 mg/kg i.p. J1-J5) it was 19,33; in the data set with leucémie P 388 (40 mg/kg i.p. J1-J5) it was 20,0; in the data set on leucémie P 388 (80 mg/kg i.p. J1-J5) it was 8,25. Also, the T/C % with leucémie P 388 (5 mg/kg i.p. J1-J5) is reported as 136%; with leucémie P 388 (10 mg/kg i.p. J1-J5), 150%; with leucémie P 388 (20 mg/kg i.p. J1-J5), 167%; with leucémie P 388 (40 mg/kg i.p. J1-J5), 173%; with leucémie P 388 (80 mg/kg i.p. J1-J5) it was 71%. Moreover, the Survivants in the data set with leucémie P 388 (setting [2]), with leucémie P 388 (setting [3]), in the data set on leucémie P 388 (setting [4]), with leucémie P 388 (setting [5]) and in the data set with leucémie P 388 (setting [6]) was 0 throughout.
As for `CCN(CC)CCCCNc1ncc(C)c2c1c1cnccc1n2C` [Dérivé N° 10, [(diéthylamino-4 butyl-1)amino]-1 diméthyl-4,5 5-H pyrido[3',4':4,5]pyrrolo[3,2-c]pyridine], the IC50 in data set [1] was determined as 2 µM.
As to `CCCN(CCC)CCCNc1ncc(C)c2[nH]c3ccncc3c12` [Dérivé N° 12, [(dipropylamino-3 propyl-1)amino]-1 méthyl-4 5-H pyrido[3',4':4,5]pyrrolo[3,2-c]pyridine], in data set [1], the IC50 was 8.5 µM.
On to `CCCN(CCC)CCCNc1ncc(C)c2c1c1cnccc1n2C` [Dérivé N° 13, diméthyl-4,5[(dipropylamino-3 propyl-1)ami-no]-l 5-H pyrido[3',4':4,5]pyrrolo[3,2-c]pyridine], for which the IC50 in data set [1] was 3.2 µM.
With `O=c1[nH]cc(F)c(=O)[nH]1` [Fluorouracile, 5-fluorouracile, reference compound], the Survivants in the data set with leucémie P 388 (setting [4]) was 0/10 and 0; with leucémie L 1210 (at day J 60), 0. Also, in the data set with leucémie L 1210, the “Jour médian de survie” value was 16,0 and 18. Further, the T/C % in the data set on leucémie L 1210 is 178% and 195%.
